Patent publication US20080221086A1, “Novel Inhibitors of Glutaminyl Cyclase” (PROBIODRUG AG, priority 2006, published 2008)
Read-outs that look alike come from different tables or passages of the source.

Molecular target: hQC (Homo sapiens, UniProt Q16769)
Test: Fluorometric assay of glutaminyl cyclase (QC) inhibition, H-Gln-βNA or H-Gln-AMC substrate
Format: biochemical
Outline: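 Fluorometric coupled assays at 30° C in Tris/HCl pH 8.0 with EDTA and pyroglutamyl aminopeptidase used either 0.2 mM H-Gln-βNA (320/410 nm) or H-Gln-AMC (380/460 nm), started by QC. Screening used 4 mM inhibitor at substrate 1 KM. Ki came from fitting progress curves to competitive inhibition.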

Sequence of hQC (Q16769 29-361): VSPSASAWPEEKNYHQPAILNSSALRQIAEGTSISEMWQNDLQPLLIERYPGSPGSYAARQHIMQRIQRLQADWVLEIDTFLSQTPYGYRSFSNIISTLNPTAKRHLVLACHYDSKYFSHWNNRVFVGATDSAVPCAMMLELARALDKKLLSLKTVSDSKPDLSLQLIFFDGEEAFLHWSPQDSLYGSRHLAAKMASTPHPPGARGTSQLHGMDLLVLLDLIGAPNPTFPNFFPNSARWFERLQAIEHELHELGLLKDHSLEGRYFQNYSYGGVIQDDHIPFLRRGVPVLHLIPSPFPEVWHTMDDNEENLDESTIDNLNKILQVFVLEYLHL

Structure (SMILES)	IC50 (read-out: IC50)	IC50 (compound from preparative synthesis, purified by chromatography, fluorescent assay, read-out: IC50 hQC)
O=C1N/C(=N\C2CCCc3ccccc32)C(c2cccc(Br)c2)N1c1ccc2[nH]cnc2c1 (stereo not shown) [Compound 336, 1-(1H-Benzoimidazol-5-yl)-5-(3-bromo-phenyl)-4-1,2,3,4-tetrahydro-naphthalen-1-ylimino-imidazolidin-2-one]	0.004 µM	–
O=C1CCCN1CCCN=C1NC(=O)N(c2ccc3[nH]cnc3c2)C1c1cccc2cccnc12 (stereo not shown) [Compound 215, 1-(1H-Benzoimidazol-5-yl)-4-3-(2-oxo-pyrrolidin-1-yl)-propylimino-5-quinolin-8-yl-imidazolidin-2-one]	6.7 µM	–
CCCCC1/C(=N\CC(=O)N2CCc3ccccc3C2)NC(=O)N1CCCn1ccnc1 (stereo not shown) [Compound 74, 5-Butyl-4-2-(3,4-dihydro-1H-isoquinolin-2-yl)-2-oxo-ethylimino-1-(3-imidazol-1-yl-propyl)-imidazolidin-2-one]	7.6 µM	–
CCCCC1/C(=N\C)NC(=O)N1CCCn1ccnc1 (stereo not shown) [Compound 16, 5-Butyl-1-(3-imidazol-1-yl-propyl)-4-methylimino-imidazolidin-2-one]	7.6 µM	–
Cc1cccc(C2/C(=N/c3cc(Cl)ccc3Cl)NC(=S)N2c2ccc3[nH]cnc3c2)c1 (stereo not shown) [Compound 299, 1-(1H-Benzoimidazol-5-yl)-4-2,5-dichloro-phenylimino-5-m-tolyl-imidazolidine-2-thione]	7.6 µM	–
O=C1N/C(=N\c2ccc3c(c2)OCCO3)C(c2cc(F)cc(F)c2)N1CCCn1ccnc1 (stereo not shown) [Compound 32, 5-(3,5-Difluoro-phenyl)-4-2,3-dihydro-benzo1,4dioxin-6-ylimino-1-(3-imidazol-1-yl-propyl)-imidazolidin-2-one]	6.7 µM	–
S=C1N/C(=N\C2CCCC2)C(c2ccc3ccccc3c2)N1c1ccc2[nH]cnc2c1 (stereo not shown) [Compound 256, 1-(1H-Benzoimidazol-5-yl)-4-cyclopentylimino-5-naphthalen-2-yl-imidazolidine-2-thione]	9.4 µM	–
O=C1NC(=NCCC(c2ccccc2)c2ccccc2)C(c2ccc(Cl)c(F)c2)N1CCCn1ccnc1 (stereo not shown) [Compound 109, 5-(4-Chloro-3-fluoro-phenyl)-4-3,3-diphenyl-propylimino-1-(3-imidazol-1-yl-propyl)-imidazolidin-2-one]	7.6 µM	–
Cc1ccc(C2/C(=N/C(C)(C)CC(C)(C)C)NC(=O)N2c2ccc3nc[nH]c3c2)cc1 (stereo not shown) [Compound 293, 1-(3H-Benzoimidazol-5-yl)-4,1,1,3,3-tetramethyl-butylimino-5-p-tolyl-imidazolidin-2-one]	5.8 µM	–
C/N=C1/NC(=O)N(c2ccc3[nH]cnc3c2)C1c1ccc2ccccc2c1 (stereo not shown) [Compound 159, 1-(1H-Benzoimidazol-5-yl)-4-methylimino-5-naphthalen-2-yl-imidazolidin-2-one]	0.004 µM	–
O=C1N/C(=N\C2CCc3ccccc32)C(c2ccc3[nH]ccc3c2)N1c1ccc2[nH]cnc2c1 (stereo not shown) [Compound 218, 1-(1H-Benzoimidazol-5-yl)-4-indan-1-ylimino-5-(1H-indol-5-yl)-imidazolidin-2-one]	0.004 µM	–
O=C1CCCN1CC/N=C1\NC(=S)N(c2ccc3[nH]cnc3c2)C1c1cccc(Br)c1 (stereo not shown) [Compound 175, 1-(2-(1-(1H-benzo[d]imidazol-5-yl)-5-(3-bromophenyl)-2-thioxoimidazolidin-4-ylideneamino)ethyl)pyrrolidin-2-one]	4.9 µM	–
O=C1N/C(=N\c2ccc3c(c2)OCCO3)C(c2ccccc2Cl)N1CCCn1ccnc1 (stereo not shown) [Compound 34, 5-(2-Chloro-phenyl)-4-2,3-dihydro-benzo1,4dioxin-6-ylimino-1-(3-imidazol-1-yl-propyl)-imidazolidin-2-one]	4 µM	–
O=C1N/C(=N\Cn2nnc3ccccc32)C(c2ccccc2F)N1c1ccc2[nH]cnc2c1 (stereo not shown) [Compound 337, 1-(1H-Benzoimidazol-5-yl)-4-benzotriazol-1-ylmethylimino-5-(2-fluoro-phenyl)-imidazolidin-2-one]	1.3 µM	–
S=C1N/C(=N\C2CCCc3ccccc32)C(c2ccccc2Cl)N1c1ccc2[nH]cnc2c1 (stereo not shown) [Compound 278, 1-(1H-Benzoimidazol-5-yl)-5-(2-chloro-phenyl)-4-1,2,3,4-tetrahydro-napthalen-1-ylimino-imidazolidine-2-thione]	6.7 µM	–
COc1cc(C/N=C2\NC(=O)N(CCCn3ccnc3)C2c2cccc(F)c2F)cc(OC)c1OC (stereo not shown) [Compound 25, 5-(2,3-Difluoro-phenyl)-1-(3-imidazol-1-yl-propyl)-4-3,4,5-trimethoxy-benzylimino-imidazolidin-2-one]	9.4 µM	–
O=C1N/C(=N/Cn2nnc3ccccc32)CN1c1ccc2[nH]cnc2c1 [Compound 325, 1-(1H-Benzoimidazol-5-yl)-4-benzotriazol-1-ylmethylimino-imidazolidin-2-one]	6.7 µM	–
O=C1N/C(=N\C(c2ccccc2)c2ccccc2)C(c2cccc(F)c2)N1CCCn1ccnc1 (stereo not shown) [Compound 88, 4-Benzhydrylimino-5-(3-fluoro-phenyl)-1-(3-imidazol-1-yl-propyl)-imidazolidin-2-one]	5.8 µM	–
S=C1N/C(=N/Cc2ccc3[nH]ccc3c2)C(c2cc(Br)cc(Br)c2)N1c1ccc2nc[nH]c2c1 (stereo not shown) [Compound 132, 1-(3H-Benzoimidazol-5-yl)-5-(3,5-dibromo-phenyl)-4-1H-indol-5-ylmethylimino-imidazolidine-2-thione]	4.9 µM	–
CC(C)/N=C1\NC(=O)N(c2ccc3[nH]cnc3c2)C1c1cccc(C#N)c1 (stereo not shown) [Compound 174, 3-{3-(1H-Benzoimidazol-5-yl)-5-isopropylimino-2-oxo-imidazolidin-4-yl}-benzonitrile]	0.4 µM	–
CCc1ccccc1/N=C1\NC(=O)N(c2ccc3[nH]cnc3c2)C1c1ccccc1 (stereo not shown) [Compound 245, 1-(1H-Benzoimidazol-5-yl)-4-2-ethyl-phenylimino-5-phenyl-imidazolidin-2-one]	7.6 µM	–
O=C(C/N=C1/NC(=O)N(CCCn2ccnc2)C1c1ccc(O)cc1)N1CCc2ccccc2C1 (stereo not shown) [Compound 79, 4-2-(3,4-Dihydro-1H-isoquinolin-2-yl)-2-oxo-ethylimino-5-(4-hydroxy-phenyl)-1-(3-imidazol-1-yl-propyl)-imidazolidin-2-one]	3.1 µM	–
O=C1N/C(=N/Cn2nnc3ccccc32)C(c2ccc3nsnc3c2)N1c1ccc2[nH]cnc2c1 (stereo not shown) [Compound 271, 1-(1H-Benzoimidazol-5-yl)-5-benzo[c][1,2,5]thiadiazol-5-yl-4-benzotriazol-1-ylmethylimino-imidazolidin-2-one]	0.4 µM	–
O=C1N/C(=N\C(c2ccccc2)c2ccccc2)C(C2CCC=CO2)N1CCCn1ccnc1 (stereo not shown) [Compound 82, 4-Benzhydrylimino-5-(3,4-dihydro-2H-pyran-2-yl)-1-(3-imidazol-1-yl-propyl)-imidazolidin-2-one]	9.4 µM	–
O=C1N/C(=N/Cc2ccccc2)C(c2ccc(Cl)cc2)N1c1ccc2[nH]cnc2c1 (stereo not shown) [Compound 162, 1-(1H-Benzoimidazol-5-yl)-4-benzylimino-5-(4-chloro-phenyl)-imidazolidin-2-one]	0.004 µM	0.0195 µM
O=C1N/C(=N/CCc2cccs2)C(c2cc(F)cc(F)c2)N1CCCn1ccnc1 (stereo not shown) [Compound 41, 5-(3,5-Difluoro-phenyl)-1-(3-imidazol-1-yl-propyl)-4-2-thiophen-2-yl-ethylimino-imidazolidin-2-one]	3.1 µM	–
O=C(C/N=C1/NC(=O)N(c2ccc3[nH]cnc3c2)C1c1ccc(Br)cc1)N1CCSCC1 (stereo not shown) [Compound 208, 1-(1H-Benzoimidazol-5-yl)-5-(4-bromo-phenyl)-4-2-oxo-2-thiomorpholin-4-yl-ethylimino-imidazolidin-2-one]	4 µM	–
